These are literature values, as cited in patent US20150352111A1, “Therapeutic Indications of Kinase Inhibitors” (Pulmokine, Inc., priority 2013, published 2015).

For one data set, the system named is phospho-ERK1/2. The conditions noted are these: rat MCT model; cited from earlier work.
Another data set concerns patients with PAH. Particulars: cited from earlier work.
In a further data set the test system is PASMCs. Particulars: cited from earlier work.
The next data set relates to rat MCT model of PAH. The conditions noted are these: cited from earlier work.

With `Cc1ccc(NC(=O)c2ccc(CN3CCN(C)CC3)cc2)cc1Nc1nccc(-c2cccnc2)n1` [imatinib], the phospho-ERK1/2 entry with phospho-ERK1/2 was “reduction”. The “primary efficacy parameter (6MWD) compared with placebo” value with patients with PAH (6 month period, US 2011/0190313) is “did not improve”. The 6-min walk distance entry with patients with PAH (IMPRES trial, patients with severe PAH) is given as “improvement”. Further, in the data set on PASMCs, the “migration of PASMCs” value was “inhibited”. Besides, in the data set on rat MCT model of PAH, the RVSP result is reported as “decreased” and the survival entry is listed as “improved”.
